Where two headings read alike, the source gives them in different places. Marks after values point to notes of the source that are not given here.
Assays:
[1] = system: male Wistar rats fed obesogenic diet high in sucrose and fat; assay: Body weight, food intake, adipose tissue and muscle weights in rats fed an obesogenic diet with pterostilbene for 6 weeks; format: in vivo, rat; settings: for decrease in total adipose tissue mass: versus control; for Adipose Tissue Weight, Epididymal / Adipose Tissue Weight, Interscapular Brown / Adipose Tissue Weight, Mesenteric / Adipose Tissue Weight, Perirenal / Adipose Tissue Weight, Subcutaneous / Adipose Tissue Weight, Total Fat Depots / Body Weight Increase / Food Intake / Final Body Weight: mean ± SEM; for Final Body Weight: n = 9, in g
Protocol: (§1) The experiment was conducted with twenty seven male Wistar rats with an initial body weight of 180±2 grams purchased from Harlan Ibérica (Barcelona, Spain), and took place in accordance with the University of the Basque Country's guide for the care and use of laboratory animals (Reference protocol approval CUEID CEBA/30/2010). The rats were individually housed in polycarbonate metabolic cages (Techniplast Gazzada, Guguggiate, Italy) and placed in an air-conditioned room (22±2° C.) with a 12 h light-dark cycle. After a 6-day adaptation period, rats were randomly divided in 3 dietary groups of nine animals each, and fed on a commercial obesogenic diet, high in sucrose (20.0%) and fat (22.5%) (Harlan Iberica, TD.06415). Pterostilbene was added to the diet. Rats in the pterostilbene groups received 15 mg/kg body weight/d (PT15 group) or 30 mg/kg body weight/d (PT30 group). All animals had free access to food and water. Food intake and body weight were daily measured.
At the end of the 6-week experimental period, animals were sacrificed, under anaesthesia (chloral hydrate), by cardiac exsanguination. White adipose tissue from different anatomical locations (perirenal, epididymal, mesenteric and subcutaneous) and liver were dissected, weighed and immediately frozen.

[2] = system: mice; settings: mice fed 28 days at doses up to 3000 mg/kg body weight/d; cited from earlier work
[3] = in vivo; cited from earlier work
[4] = Serum and tissue levels of pterostilbene by GC-MS; format: in vivo, rat; settings: for concentration at 6 weeks: male, Wistar, rat, oral
Protocol: as §1
Extraction of pterostilbene in the serum was according to published procedure (Kotani et al. 2003. J. Chromatogr. B. 788:269-275), with modifications. Serum from −80° C. storage was thawed on ice. To 50 μL serum was added 15 μL of β-glucuronidase (from E. coli, Type IX-A, Sigma-Aldrich, St. Louis, Mo., USA; 250 U/15 mL sodium phosphate buffer, 0.1M, pH 6.8) and 15 μL of sulfatase (from Abalone Entrails, Type VIII, Sigma-Aldrich, St. Louis, Mo., USA; 20 U/15 mL sodium phosphate buffer, 0.1M, pH 6.8), then vortex-mixed. This mixture was incubated for 20 hr at 37° C. while shaking at 750 rpm, cooled to room temperature, then partitioned with ethyl acetate (75 μL×3). The ethyl acetate layers were combined and dried under nitrogen. The dried sample was derivatized with 40 μL of N,O-bis[trimethylsilyl]-trifluoroacetamide: dimethyl-formamide (BSTFA:DMF, 1:1; Pierce Biotechnology, Inc., Rockford, Ill.), heated at 70° C. for 40 min and used for the analysis of pterostilbene by gas chromatography-mass spectrometry (GC-MS).
Pterostilbene in liver and muscle was extracted following published procedure (Hou et al. 2011. Planta Med. 77:455-460), with minor modifications. For liver, 100 mg fresh tissues were homogenized in 1 mL saline solution (0.9% NaCl in H2O). For muscle, 100 mg lyophilized tissue was homogenized in 1 mL sodium acetate buffer, pH 5. To the homogenates was added 300 μL enzyme solution (793.67 U/mL sulfatase and 666.66 U/mL β-glucuronidase in sodium acetate buffer, pH 5), vortex-mixed, and incubated at 37° C. for 16 hr while shaking at 750 rpm. To this mixture was added 100 μL of 0.1N HCl, then partitioned with ethyl acetate (800 μL×2). The ethyl acetate layers were combined, then dried under nitrogen. The dried sample was derivatized with BSTFA:DMF under the same conditions used for the analysis of pterostilbene in serum.
For the analysis of pterostilbene in epididymis and subcutaneous tissues, 100 mg of lyophilized tissue was homogenized in 300 μL of sodium acetate buffer, then sonicated for 30 min. To the homogenate was added 300 μl enzyme solution (793.67 U/mL sulfatase and 1333.33 U/mL β-glucuronidase in sodium acetate buffer, pH5) vortex-mixed, and incubated at 37° C., with shaking (750 rpm), for 16 hours. After incubation, 500 μl ice-cold acetonitrile was added, vortex-mixed for 1 min, then centrifuged at 800 rpm (Savant SpeedVac, model number SPD121P-120) for 20 min. The clear supernatant was collected, and again treated with 500 μl ice-cold acetonitrile, vortex-mixed and then centrifuged at 800 rpm for 20 min. The supernatant was then dried under a stream of nitrogen, then derivatized with BSTFA:DMF using the same conditions as in the analysis of pterostilbene in serum.
GC-MS analysis of pterostilbene in serum and tissues was performed using a J&W DB-5 capillary column (0.25 mm internal diameter, 0.25 μm film thickness, 30 m length; Agilent Technologies, Foster City, Calif.) on a JEOL GCMate II Instrument (JEOL USA Inc., Peabody, Mass.). […]

[5] = PT15: 15 mg/kg body weight/d in diet
[6] = PT30: 30 mg/kg body weight/d in diet

## COc1cc(/C=C/c2ccc(O)cc2)cc(OC)c1 [pterostilbene]
[1]; PT15: 15 mg/kg BW/d
  decrease in total adipose tissue mass: 15.1%
[1]; [5]
  Adipose Tissue Weight, Epididymal: 10.5 ± 0.9 g
  Adipose Tissue Weight, Interscapular Brown: 1.01 ± 0.23 g
  Adipose Tissue Weight, Mesenteric: 5.2 ± 0.4^ab g
  Adipose Tissue Weight, Perirenal: 12.0 ± 1.1^ab g
  Adipose Tissue Weight, Subcutaneous: 12.6 ± 1.2^b g
  Adipose Tissue Weight, Total Fat Depots: 40.3 ± 3.0^b g
  Body Weight Increase: 206 ± 9 g
  Food Intake: 17.7 ± 0.5 g/day
  Final Body Weight: 382 ± 5
[1]; PT30: 30 mg/kg BW/d
  decrease in total adipose tissue mass: 22.9%
[1]; [6]
  Adipose Tissue Weight, Epididymal: 10.5 ± 1.1 g
  Adipose Tissue Weight, Interscapular Brown: 0.75 ± 0.05 g
  Adipose Tissue Weight, Mesenteric: 4.8 ± 0.5^b g
  Adipose Tissue Weight, Perirenal: 11.2 ± 1.0^b g
  Adipose Tissue Weight, Subcutaneous: 12.7 ± 1.6^b g
  Adipose Tissue Weight, Total Fat Depots: 36.6 ± 3.5^b g
  Body Weight Increase: 200 ± 6 g
  Food Intake: 17.5 ± 0.3 g/day
  Final Body Weight: 382 ± 5
[2]
  toxic or adverse biochemical effects compared to controls: no significant toxic or adverse biochemical effects
[3]
  half-life: approximately 2 hr
[4]; PT15: 15 mg/kg body weight/d in diet, 6 weeks
  Muscle level of pterostilbene: Not Detected
[4]; epididymis, PT15: 15 mg/kg body weight/d in diet, dry weight, n = 8, read-out: Epididymis level of pterostilbene
  concentration at 6 weeks: 10.9 ± 5.3 ng/g
[4]; epididymis, PT30: 30 mg/kg body weight/d in diet, dry weight, n = 8, read-out: Epididymis level of pterostilbene
  concentration at 6 weeks: 30.7 ± 11 ng/g
[4]; liver, PT15: 15 mg/kg body weight/d in diet, fresh weight, n = 8, read-out: Liver level of pterostilbene
  concentration at 6 weeks: 308 ± 117 ng/g
[4]; liver, PT30: 30 mg/kg body weight/d in diet, fresh weight, n = 6, read-out: Liver level of pterostilbene
  concentration at 6 weeks: 726 ± 112 ng/g
[4]; muscle, PT30: 30 mg/kg body weight/d in diet, dry weight, n = 8, read-out: Muscle level of pterostilbene
  concentration at 6 weeks: 9.1 ± 2 ng/g
[4]; serum, PT15: 15 mg/kg body weight/d in diet, after glucuronidase/sulfatase hydrolysis, n = 8, read-out: Serum level of pterostilbene
  concentration at 6 weeks: 384 ± 54.7 ng/mL
[4]; serum, PT30: 30 mg/kg body weight/d in diet, after glucuronidase/sulfatase hydrolysis, n = 6, read-out: Serum level of pterostilbene
  concentration at 6 weeks: 789 ± 246 ng/mL
[4]; subcutaneous tissue, PT15: 15 mg/kg body weight/d in diet, dry weight, n = 7, read-out: Subcutaneous tissue level of pterostilbene
  concentration at 6 weeks: 20.5 ± 13.7 ng/g
[4]; subcutaneous tissue, PT30: 30 mg/kg body weight/d in diet, dry weight, n = 7, read-out: Subcutaneous tissue level of pterostilbene
  concentration at 6 weeks: 35.4 ± 7.7 ng/g

From patent US20130296441A1, “Anti-Obesity Properties of Pterostilbene” (priority 2012, published 2013)
